The values below come from ChEMBL document CHEMBL2016562, “Optimization of Pharmacokinetics through Manipulation of Physicochemical Properties in a Series of HCV Inhibitors” (ACS Med Chem Lett, 2011).

Series [1] in a line: Half life in Sprague-Dawley rat liver microsomes. Type of series: ADME, Microsome. (In general: Liver microsomes are vesicles of endoplasmic reticulum, rich in cytochrome P450 enzymes.)
The next series relates to Hepatitis C virus. Nature of the series: Antiviral activity against HCV subtype 1b in replicon cells after 3 days by luciferase reporter gene assay. Type of series: functional, Hepacivirus hominis. The conditions noted are these: genotype 1b, 72 h.
Series [2] can be described thus: Mean residence time in Sprague-Dawley rat. Format: ADME, organism-based. To be noted: in vivo.
Series [3] can be described thus: Oral bioavailability in Sprague-Dawley rat after 30 mins. Type of series: ADME, organism-based. To be noted: in vivo.
Series [4] can be described thus: Clearance in Sprague-Dawley rat after 30 mins. Type of series: ADME, organism-based. The conditions noted are these: in vivo.
Series [5] can be described thus: Volume of distribution at steady state in Sprague-Dawley rat after 30 mins. To be noted: in vivo, read-out: Vdss. Type of series: ADME, organism-based.
The nature of series [6]: Apparent permeability by PAMPA assay. Format: ADME. Background: The PAMPA barrier holds no transporters, so it reflects passive diffusion.

Take `COc1ccc(-c2ccc3nc(NCc4ccc(S(N)(=O)=O)cc4)nc(NC4(C#N)CC4)c3n2)cn1`: the half-life in series [1] stood at 1.62 h. Further, in the series with Hepatitis C virus, the EC50 came out at 1 nM. This compound also registered an MRT in series [2] of 0.4 h. For the same compound, the bioavailability in series [3] came to 2%.

In series [1], `FC(F)(F)CNc1nc(NCc2ccc(-n3cncn3)cc2)nc2ccc(-c3ccc(OC4CC4)nc3)nc12` registered a half-life greater than 6.58 h. In addition, the EC50 in the series with Hepatitis C virus is 3 nM. Besides, the MRT in series [2] worked out at 5.3 h. The compound also registered a bioavailability in series [3] of 59%.

`NS(=O)(=O)c1ccc(CNc2nc(NCC(F)(F)F)c3nc(-c4ccc(F)cc4)ccc3n2)cc1` returned a half-life in series [1] greater than 6.58 h. In the series with Hepatitis C virus, this compound gave an EC50 of 16 nM. The clearance in series [4] was 5 mL/min/kg. In addition, in series [5], the Vd was determined as 2.3 L/kg. The same compound yielded an MRT in series [2] of 6.9 h. This compound returned a bioavailability in series [3] of 100%.

In series [1], `NS(=O)(=O)c1ccc(CNc2nc(NCC(F)(F)F)c3nc(-c4ccc(-n5cncn5)cc4)ccc3n2)cc1` showed a half-life greater than 6.58 h. In the series on Hepatitis C virus, this compound registered a 50% effective concentration (EC50) of 2 nM. The compound further had a bioavailability in series [3] of 4%.

With `N#CC1(Nc2nc(NCc3ccc(S(N)(=O)=O)cc3)nc3ccc(-c4ccc(F)nc4)nc23)CC1`, the half-life in series [1] was greater than 6.58 h. The compound further showed a 50% effective concentration (EC50) with Hepatitis C virus of 5 nM. In series [4], this compound gave a clearance of 15 mL/min/kg. Besides, the Vd in series [5] was 0.9 L/kg. This compound also displayed a mean residence time (MRT) in series [2] of 0.9 h.

In series [1], `NS(=O)(=O)c1ccc(CNc2nc(NCC(F)(F)F)c3nc(-c4ccc(F)nc4)ccc3n2)cc1` registered a half-life of 4.63 h. Moreover, in the series with Hepatitis C virus, the concentration for a half-maximal effect (EC50) turned out to be 10 nM. The same compound had a clearance in series [4] of 3.33 mL/min/kg. In addition, in series [5], the Vd came to 1 L/kg. For the same compound, in series [2], the mean residence time MRT came out at 4.9 h.

In turn, `NS(=O)(=O)c1cc(Cl)cc(CNc2nc(NC3(C(F)(F)F)CC3)c3nc(-c4ccc(F)cc4)ccc3n2)c1` yielded a half-life in series [1] greater than 6.58 h. For the same compound, in the series on Hepatitis C virus, the EC50 was determined as 28 nM. The clearance in series [4] is 6.67 mL/min/kg. Also, the Vd in series [5] is 4.3 L/kg. This compound also gave an MRT in series [2] of 11 h.

In series [1], `COc1ccc(-c2ccc3nc(NCc4ccc(S(N)(=O)=O)cc4)nc(NCC(F)(F)F)c3n2)cc1S(C)(=O)=O` registered a half-life greater than 6.58 h. For the same compound, the EC50 in the series on Hepatitis C virus was found to be 1 nM. Also, the MRT in series [2] was determined as 0.8 h. The bioavailability in series [3] turned out to be 1%.

Compound `COc1ccc(-c2ccc3nc(N[C@H](C)c4ccc(-n5cncn5)cc4)nc(NCC(F)(F)F)c3n2)cc1S(C)(=O)=O` had a half-life in series [1] of 5.85 h. In the series with Hepatitis C virus, the 50% effective concentration (EC50) stood at 2 nM. This compound came in with a mean residence time (MRT) in series [2] of 2.6 h. Further, the bioavailability in series [3] amounted to 47%.

`C[C@@H](Nc1nc(NC2(C(F)(F)F)CC2)c2nc(-c3cccc(S(C)(=O)=O)c3)ccc2n1)c1ccc(-n2cncn2)cc1` yielded a half-life in series [1] of 3.92 h. It took 4 nM to reach a half-maximal effect in the series on Hepatitis C virus (EC50). Further, the mean residence time MRT in series [2] was found to be 3.5 h. This compound also had a bioavailability in series [3] of 88%.

In series [1], `CC1(Oc2nc(NCc3ccc(-n4cncn4)cc3)nc3ccc(-c4ccc(OC5CC5)nc4)nc23)CC1` registered a half-life greater than 6.58 h. In addition, the EC50 in the series on Hepatitis C virus came out at 2 nM. The mean residence time MRT in series [2] was 1.9 h. Further, the bioavailability in series [3] was 100%.

`NS(=O)(=O)c1ccc(CNc2nc(NCC(F)(F)F)c3nc(-c4ccc(NC(=O)C5CC5)cc4)ccc3n2)cc1`: the half-life in series [1] turned out to be 1.17 h. Also, the concentration for a half-maximal effect (EC50) in the series with Hepatitis C virus was 3 nM. The compound also displayed a bioavailability in series [3] of 1%. Also, the Papp in series [6] was 0.004 ×10⁻⁶ cm/s.

`NS(=O)(=O)c1cc(CNc2nc(NCC(F)(F)F)c3nc(-c4ccc(NC(=O)C5(C(F)(F)F)CC5)cc4)ccc3n2)cc(C(F)(F)F)c1` gave a half-life in series [1] greater than 6.58 h. Further, the concentration for a half-maximal effect (EC50) in the series with Hepatitis C virus was found to be 6 nM. This compound had a bioavailability in series [3] of 39%. Moreover, the apparent permeability (Papp) in series [6] is 0.09 ×10⁻⁶ cm/s.

The term half-life denotes the time in which the quantity being followed falls by half. A higher half-life goes with slow loss. A word on the EC50: it is the concentration needed to bring the measured effect to its halfway point. A lower EC50 goes with an effect from little substance. For orientation: MRT means a mean duration of stay, worked out from the concentration-time curve. By bioavailability is commonly meant dose-corrected exposure relative to a reference, in per cent. Read a high bioavailability as good availability. As a reminder, the clearance is the volume of plasma or blood freed of the substance per unit of time. Low values mean a low capacity for elimination, high ones a high capacity for elimination. What is called Papp is the rate of passage across a membrane or cell layer, normalised by area and donor concentration.
